A value given as a limit tells only on which side of the number the result lay.

As a reminder, the IC50 is the point on the concentration scale where inhibition reaches its midpoint.

For this test, the target named is human PDE4D3 (PDE4D) (Homo sapiens (Human), UniProt Q08499). In words: Phosphodiesterase (PDE)4 inhibitory activity evaluation test ([3H]cAMP hydrolysis by PDE4D enzyme solution). It counts as biochemical. The conditions noted are these: recombinant human PDE4D3 expressed in COS-7 cells; [3H]cAMP substrate; 10 min at 30° C.; 2% DMSO. The text has this: Phosphodiesterase (PDE)4 Inhibitory Activity Evaluation Test
Chain of human PDE4D3 (PDE4D) (Q08499 other isoform, or with tags, fused parts or gaps): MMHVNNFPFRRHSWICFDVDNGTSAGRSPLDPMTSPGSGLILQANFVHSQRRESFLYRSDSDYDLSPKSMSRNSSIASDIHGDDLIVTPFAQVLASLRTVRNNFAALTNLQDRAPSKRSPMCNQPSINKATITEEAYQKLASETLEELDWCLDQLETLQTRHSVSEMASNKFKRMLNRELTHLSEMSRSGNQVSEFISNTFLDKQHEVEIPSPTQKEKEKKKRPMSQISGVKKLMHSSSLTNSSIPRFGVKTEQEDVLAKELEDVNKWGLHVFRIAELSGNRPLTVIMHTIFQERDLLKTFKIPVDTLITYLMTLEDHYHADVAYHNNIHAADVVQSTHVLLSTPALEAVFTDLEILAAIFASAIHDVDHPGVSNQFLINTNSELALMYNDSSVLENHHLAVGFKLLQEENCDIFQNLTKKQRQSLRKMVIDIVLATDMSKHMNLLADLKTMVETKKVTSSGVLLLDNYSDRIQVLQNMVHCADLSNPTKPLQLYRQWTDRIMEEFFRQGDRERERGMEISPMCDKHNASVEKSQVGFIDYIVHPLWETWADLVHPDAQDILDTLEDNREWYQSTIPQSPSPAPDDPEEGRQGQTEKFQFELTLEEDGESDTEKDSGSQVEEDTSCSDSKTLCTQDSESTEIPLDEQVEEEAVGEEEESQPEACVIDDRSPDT
(1) Large Scale Plasmid Preparation
Plasmid containing genes (HPDE4D) coding for human PDE4D3 cDNA (stored in Otsuka America Pharmaceutical, Inc., Maryland Research Laboratories) was transformed in E. coli, cultured on a large scale, and purified using an EndoFree™ Plasmid Maxi Kit (Qiagen).
(2) Abundant Expression and Purification of PDE4D
COS-7 cells derived from African green monkey kidneys were passage cultured in D-MEM media containing 100 units/ml penicillin, 100 μg/ml streptomycin, and 10% FBS. The cells were transfected with the plasmid prepared in (1) above using Lipofectamine™ 2000 (hereinafter referred to as “LF2000”, Invitrogen), following the manufacturer's protocol. The COS-7 cells were inoculated in a 10 cm culture dish on the previous day so as to be 90% confluent on the day of transfection. Culture dishes each containing a plasmid solution (solution A) in which 24 μg of plasmid was diluted in 1.5 ml Opti-MEM I Reduced Serum Medium (Invitrogen) and an LF2000 solution (solution B) in which 60 μl of LF2000 was diluted in 1.5 ml Opti-MEM I Reduced Serum Medium were separately allowed to stand for 5 minutes at room temperature. Solutions A and B were then mixed and the mixture was allowed to stand for 20 minutes at room temperature. The mixture was added to the cultured cells, and incubated at 37° C. (5% CO2) overnight. On the following day, the medium was replaced, and the mixture was further incubated overnight to harvest the cells in the following manner. The cells were washed with PBS (Sigma) once, and 10 ml of a Trypsin-EDTA solution (Sigma) was added to each culture dish. After the solution was distributed to each of the culture dishes, the cells were detached, and the dishes were allowed to stand for about 5 minutes at 37° C. The detached cells from the dishes were suspended in media, collected into centrifuge tubes, and centrifuged at 1200 rpm for 5 minutes at 4° C., and supernatants were removed. The cells were further washed with PBS, and stored at −80° C. KHEM buffer (100 mM Hepes, 50 mM KCl, 10 mM EGTA, 1.92 mM MgCl2, pH 7.4) containing 1 mM DTT, 1 μg/ml antipain, 1 μg/ml aprotinin, 1 μg/ml leupeptin, 1 μg/ml pepstatin A, 157 μg/ml benzamidine, and 120 μg/ml Pefabloc SC was added to the stored cells, and the contents were moved to a glass homogenizer to be homogenized on ice. The cell suspension was centrifuged at 1000 rpm for 5 minutes at 4° C., and the supernatant was further centrifuged at 14000 rpm for one hour. After centrifugation, the supernatant was dispensed into new tubes as PDE4D enzyme solutions, and stored in a deep freezer.
(3) Determination on Dilution Ratio of PDE4D Enzyme Solutions
The PDE4D enzyme solutions prepared in (2) above were dissolved in 20 mM Tris-HCl solution (pH 7.4) to give 10-, 25-, 50-, 100-, 200-, 400-, and 800-fold dilutions of the enzyme solutions. PDE4D activities were measured according to (4) below. The percentage of catalyzed cAMP to total cAMP was calculated, and such a dilution, in which the percentage was between 10% and 30%, was adopted in the inhibitory study below.
(4) Measurement of PDE4D Inhibitory Activity
Necessary amounts of test compounds were weighed, and 100% dimethylsulfoxide (DMSO) was added thereto to adjust the concentration to 10 mM. The solutions were stored in a freezer as stock solutions of each test compound. After being thawed when required, the solutions were diluted 20-fold with 100% DMSO to give a 500 μM concentration. Further, 10-fold serial dilutions were made with 100% DMSO to prepare test compounds of different concentrations. 2 μl of solutions containing one of each of the test compound were separately added into 1.2 ml tubes in which 23 μl of 20 mM Tris-HCl (pH 7.4) had been placed beforehand. […]
For “3-[2-(3-hydroxy-4-methoxyphenyl)oxazol-4-yl]-1-(2-methoxymethoxy phenyl)propan-1-one [Example 232]”, the IC50 is less than 50 nM. For the molecule `CCOc1ccccc1C(=O)NCc1coc(-c2ccc(OC)c(OCC(C)C)c2)n1` [Example 14, N-[2-(3-isobutoxy-4-methoxyphenyl)oxazol-4-ylmethyl]-2-ethoxy benzamide], the IC50 was less than 50 nM. For `COc1ccc(-c2nc(CNC(=O)c3ncccc3C)co2)cc1OCC(F)(F)F` [Example 19, N-{2-[4-methoxy-3-(2,2,2-trifluoroethoxy)phenyl]oxazol-4-ylmethyl}-3-methylpicolinamide], the IC50 is less than 50 nM. Under `C=CCOc1cc(-c2nc(CNC(=O)c3ncccc3C)co2)ccc1OC` [Example 21, N-[2-(3-allyloxy-4-methoxyphenyl)oxazol-4-ylmethyl]-3-methylpicolinamide] stands less than 50 nM; under `COc1ccc(-c2nc(CNC(=O)c3ncccc3C)co2)cc1OC1Cc2ccccc2C1` [Example 22, N-{2-[3-(indan-2-yloxy)-4-methoxyphenyl]oxazol-4-ylmethyl}-3-methylpicolinamide], less than 50 nM. In the case of `CCOc1cccnc1C(=O)NCc1coc(-c2ccc(OC)c(OC3CCCC3)c2)n1` [Example 29, N-[2-(3-cyclopentyloxy-4-methoxyphenyl)oxazol-4-ylmethyl]-3-ethoxypicolinamide], the IC50 is less than 50 nM. Under `COc1ccc(-c2nc(CNC(=O)c3ccccc3OCC(F)(F)F)co2)cc1OCC1CC1` [Example 32, N-[2-(3-cyclopropylmethoxy-4-methoxyphenyl)oxazol-4-ylmethyl]-2-(2,2,2-trifluoroethoxy)benzamide] stands less than 50 nM; under `COc1ccc(-c2nc(CNC(=O)c3ccccc3OC)co2)cc1OC1CCCC1` [Example 35, N-[2-(3-cyclopentyloxy-4-methoxyphenyl)oxazol-4-ylmethyl]-2-methoxybenzamide], less than 50 nM. Under `COc1ccc(-c2nc(CNC(=O)c3ncccc3C)co2)cc1OCC1CC1` [Example 36, N-[2-(3-cyclopropylmethoxy-4-methoxyphenyl)oxazol-4-ylmethyl]-3-methylpicolinamide] stands less than 50 nM; under `COc1ccc(-c2nc(CNC(=O)c3ccc(F)cc3OC)co2)cc1OCC1CC1` [Example 42, N-[2-(3-cyclopropylmethoxy-4-methoxyphenyl)oxazol-4-ylmethyl]-4-fluoro-2-methoxybenzamide], less than 50 nM; under `COc1ccc(-c2nc(CNC(=O)c3ccccc3SC)co2)cc1OCC1CC1` [Example 44, N-[2-(3-cyclopropylmethoxy-4-methoxyphenyl)oxazol-4-ylmethyl]-2-methylsulfanylbenzamide], less than 50 nM.

Take `CCCOc1cccnc1C(=O)NCc1coc(-c2ccc(OC)c(OCC3CC3)c2)n1` [Example 61]: the IC50 is less than 50 nM. For the molecule `COc1ccc(-c2nc(CNC(=O)c3ncccc3C)co2)cc1OCC(C)C` [Example 62, N-[2-(3-isobutoxy-4-methoxyphenyl)oxazol-4-ylmethyl]-3-methylpicolinamide], the IC50 is less than 50 nM. In the case of `COc1ccc(-c2nc(CNC(=O)c3ccccc3OC)co2)cc1OCC(C)C` [Example 63, N-[2-(3-isobutoxy-4-methoxyphenyl)oxazol-4-ylmethyl]-2-methoxybenzamide], the IC50 was less than 50 nM. Take `Cc1cccnc1C(=O)NCc1coc(-c2ccc(OC(F)F)c(OCC3CC3)c2)n1` [Example 98, N-[2-(3-cyclopropylmethoxy-4-difluoromethoxyphenyl)oxazol-4-ylmethyl]-3-methylpicolinamide]: the IC50 was less than 50 nM. Take `CCOc1ccccc1C(=O)CCc1coc(-c2ccc(OC)c(OCC3CC3)c2)n1` [Example 102, 3-[2-(3-cycropropylmethoxy-4-methoxyphenyl)oxazol-4-yl]-1-(2-ethoxyphenyl)propan-1-one]: the IC50 is less than 50 nM. As to `CCOc1cc(-c2nc(CCC(=O)c3ccccc3OCC)co2)ccc1OC` [Example 103, 3-[2-(3-ethoxy-4-methoxyphenyl)oxazol-4-yl]-1-(2-ethoxyphenyl)propan-1-one], the half-inhibitory concentration (IC50) is less than 50 nM.

(Values after patent publication USRE46792E1, “Oxazole compound and pharmaceutical composition” (Otsuka Pharmaceutical Co., Ltd., priority 2005, dated 2018).)
